This is an account of results in patent US4994485A, “Thio compounds having fungicidal activity” (Duphar International Research B.V., priority 1986, dated 1991).

By inhibition is commonly meant how much of the control response was suppressed. Usually LD50 stands for the dose at which mortality reaches 50%.

Series [1] deals with Pythium splendens. In words: In vitro test on activity against Pythium splendens. The class given is cell-based. Conditions: Globisporangium splendens, read-out: growth inhibition of the fungus.
Series [2] in a line: Acute oral toxicity (lethal dose) in male mice. Conditions: mouse, in vivo, acute mortality, mg/kg of body weight. The protocol:
Toxicity with respect to warm-blooded living beings.
The LD50 is determined by orally administering the substance to be tested to male mice and determining the acute mortality. In Table C below, the LD50 is recorded in mg/kg of body weight.
For comparison, the known compound (b) (see EXAMPLE XV) is also tested.

Series [3] relates to Rhizoctonia solani. In words: In vitro test on activity against Rhizoctonia solani. The class given is cell-based. Conditions: read-out: growth inhibition of the fungus. As for the experimental part: The compound to be tested is processed in a culture medium consisting of 1% by weight of glucose, 0.2% by weight of a yeast extract (marmite), 0.5% by weight of a protein (pepton), 2.5% by weight of agar-agar, and 95.8% by weight of water, […] The petri dishes are inoculated with the plant-pathogenic fungus Pyrenophora graminea and then kept at a temperature of 20° C. After 48 hours the growth-inhibiting activity of the compounds is determined visually. For comparison, the known substance (b) (see EXAMPLE XV) is also tested.
Compounds according to the invention are tested on Rhizoctonia solani in the same manner as described in EXAMPLE XIX.

The subject of series [4] is Leptosphaeria nodorum. The series can be described thus: In vitro test on activity against Leptosphaeria nodorum. The class given is cell-based. Conditions: Parastagonospora nodorum, read-out: growth inhibition of the fungus. The gist of the method: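 Compounds were incorporated at 3 and 10 ppm into glucose/yeast extract/peptone agar plates inoculated with the fungus. Plates were held at 20 °C, and growth inhibition was scored visually after 48 h.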

Series [5] concerns Fusarium culmorum. In words: In vitro test on activity against Fusarium culmorum. The class given is cell-based. The following applies: read-out: growth inhibition of the fungus.
The test system of series [6] is Pyrenophora graminea. In words: In vitro test on activity against Pyrenophora graminea. The class given is cell-based. The following applies: 48 hours, 20° C., read-out: % growth inhibition of the fungus.
Series [7] relates to soil-borne and seed-borne pathogenic micro-organisms. In words: Fungicidal activity in practice (general statement). Conditions: in words.
Series [8] has as its system Fusarium culmorum. In words: Protection of seedlings against plant pathogenic seed fungus by seed treatment (wheat). The class given is in vivo. The following applies: wheat seed infested with Fusarium culmorum; 3 g composition (10% by weight in kaolin) per kg of seed; after three weeks, 8°-12° C.; untreated 67. As for the experimental part:
Test with respect to the protection of seedlings against a plant pathogenic seed fungus, namely Fusarium culmorum, by means of a seed treatment.
Wheat seed, infested with Fusarium culmorum, is treated with the substance to be tested in the form of a composi tion in a quantity of 3 g per kg of seed. The composition is obtained by pulverising the substance to be tested and then intimately mixing with kaolin in a concentration of 10% by weight. The seed thus treated is sown in a tray containing soil which is placed in a Wisconsin tank with a bottom temperature of 8°-12° C. After three weeks the number of emerged and healthy plants is determined. The emergence of healthy plants from untreated seed serves as control. For comparison, the known substances 2-methylsulphinyl-4-methyl-5-nitrothiazole (a), 2-methylsulphinyl-3-nitrothiophene (b) and 2-ethylsulphinyl-3-nitro-5-acetylthiophene (c) mentioned hereinbefore are also tested. In the examples, the numbers of the compounds refer to the specification.

Series [9] concerns Pythium spp. In words: Protection of seedlings against plant-pathogenic soil fungus by seed treatment (beet). The class given is in vivo. The following applies: after 3 weeks, 18°-22° C., untreated 72. The protocol:
Test with respect to the protection of seedlings against a plant-pathogenicsoil fungus, namely Pythium spp., by means of a seed treatment.
The compounds to be tested are processed to compositions by pulverising them and then mixing them intimately with kaolin in the desired concentration (see Table B). Beet seed is treated with these compositions in a quantity of 6 g of composition per kg of seed and then sown in trays with soil which was seriously infested with Pythium spp. After 3 weeks in a glass-house at 18°-22° C. and a relative humidity of 70-100%, the percentage of non-emerged and diseased seedlings (damping-off) is determined. The results are recorded in Table B. For comparison, the known substance 2-methylsulphinyl-4-methyl-5-nitrothiazole(a) is also tested.

Series [10] concerns warm-blooded living beings. In words: Toxicity with respect to warm-blooded living beings (general statement). Conditions: in words.

Bounds are passed on as bounds.

Turning to `CCC[S+]([O-])c1sc(C#N)c(Cl)c1C#N` (stereo not shown) [(33), 2-n-propylsulphinyl-3,5-dicyano-4-chlorothiophene], the inhibition at 10 ppm in series [1] is ≥ 95%; in [6] it was 83%. Besides, in [2], the 50% lethal dose (LD50) was 246 mg/kg. Besides, the values for the inhibition at 30 ppm in [3], in [4] and in series [5] were ≥ 75%, ≥ 85% and ≥ 75%, respectively.

On to `CCCC[S+]([O-])c1sc(C#N)c(Cl)c1C#N` (stereo not shown) [(43), 2-n-butylsulphinyl-3,5-dicyano-4-chlorothiophene], for which the inhibition at 10 ppm was ≥ 95% in [1] and 72% in series [6]. The compound also showed an LD50 in [2] of 246 mg/kg. For the same compound, the inhibition at 30 ppm in series [3] was ≥ 75%; in [4], ≥ 85%; in [5] it was ≥ 75%.

In the case of `Cc1nc([S+](C)[O-])sc1[N+](=O)[O-]` (stereo not shown) [(a), 2-methylsulphinyl-4-methyl-5-nitrothiazole, reference compound], the activity result in series [7] was “insufficiently active”. Moreover, the “Percentage of emerged, healthy plants” value in series [8] worked out at 68%. The percentage damping-off in series [9] (600 mg of active substance per kg of seed) was determined as 57%; in series [9] (1200 mg of active substance per kg of seed), 45%.

Take `C[S+]([O-])c1sccc1[N+](=O)[O-]` (stereo not shown) [(b), 2-methylsulphinyl-3-nitrothiophene, reference compound]: the “toxicity with respect to warm-blooded living beings” value in series [10] was “undesired toxicity”. In addition, the activity result in [7] is “leaves to be desired in practice”. The 50% lethal dose (LD50) in [2] came to 31.6 mg/kg. The “Percentage of emerged, healthy plants” value in [8] was determined as 75%. Also, the inhibition at 3 ppm in [6] (3 ppm) came to 0%. Also, the inhibition at 10 ppm in [6] was 37%.

`CC[S+]([O-])c1sc(C(C)=O)cc1[N+](=O)[O-]` (stereo not shown) [(c), 2-ethylsulphinyl-3-nitro-5-acetylthiophene]: in [10], the “toxicity with respect to warm-blooded living beings” value is “undesired toxicity”. For the same compound, the activity result in series [7] is “leaves to be desired in practice”. Further, in [8], the “Percentage of emerged, healthy plants” value is 74%.
